The results in this text go back to patent US11939314B2, “Quinolin-2-one derivatives” (MERCK PATENT GMBH, priority 2016, dated 2024).

In one experiment the target is T1, c-Kit(V654A) (Homo sapiens, UniProt P10721, V654A).
T1 construct: amino acids 544-end containing the V654A mutation; GST (N)
Put plainly: c-Kit(V654A) assay. In kind it is biochemical. The note with it: recombinant human c-Kit aa 544-end, 200 μM ATP, 1.4E-06 means 1.4×10^−6, read-out: Inhibition (IC50) of c-KIT (V654A). An outline of the steps: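 Radiometric filter-binding read-out: substrate 33P incorporation counted by scintillation after P30 filtermat washes in 75 mM phosphoric acid and methanol. Enzyme: N-GST recombinant human c-Kit aa 544-end carrying V654A.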

The next experiment addresses T2, PDGFRalpha(V561D) (Homo sapiens, UniProt P16234, V561D).
T2 construct: recombinant human PDGFRalpha, amino acids 550end containing the V561 D mutation; 6His (N)
Put plainly: PDGFRalpha(V561D) assay. The note with it: recombinant human PDGFRalpha aa 550-end, 200 μM ATP, 1.4E-06 means 1.4×10^−6, read-out: Inhibition (IC50) of PDGFRα (V561D). In kind it is biochemical. An outline of the steps:
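Radiometric filter-binding assay: substrate phosphorylation by recombinant N-His-tagged human PDGFRα 550-end V561D was quenched with 3% phosphoric acid after 40 min at room temperature, then counted.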

SMILES strings stand for the structures.

T1 sequence (P10721 544-976 V654A): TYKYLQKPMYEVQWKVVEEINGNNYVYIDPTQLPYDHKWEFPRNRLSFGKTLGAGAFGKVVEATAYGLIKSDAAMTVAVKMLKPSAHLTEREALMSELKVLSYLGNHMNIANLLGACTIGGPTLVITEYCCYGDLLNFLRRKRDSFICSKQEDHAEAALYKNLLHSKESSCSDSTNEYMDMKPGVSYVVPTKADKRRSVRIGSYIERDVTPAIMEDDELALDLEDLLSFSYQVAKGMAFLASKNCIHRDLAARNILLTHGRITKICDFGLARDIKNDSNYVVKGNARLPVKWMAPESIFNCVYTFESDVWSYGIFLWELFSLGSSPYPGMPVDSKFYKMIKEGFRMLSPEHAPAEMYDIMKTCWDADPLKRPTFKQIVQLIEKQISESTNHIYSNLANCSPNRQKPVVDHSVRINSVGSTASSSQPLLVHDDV
T2 sequence (P16234 550-1089 V561D): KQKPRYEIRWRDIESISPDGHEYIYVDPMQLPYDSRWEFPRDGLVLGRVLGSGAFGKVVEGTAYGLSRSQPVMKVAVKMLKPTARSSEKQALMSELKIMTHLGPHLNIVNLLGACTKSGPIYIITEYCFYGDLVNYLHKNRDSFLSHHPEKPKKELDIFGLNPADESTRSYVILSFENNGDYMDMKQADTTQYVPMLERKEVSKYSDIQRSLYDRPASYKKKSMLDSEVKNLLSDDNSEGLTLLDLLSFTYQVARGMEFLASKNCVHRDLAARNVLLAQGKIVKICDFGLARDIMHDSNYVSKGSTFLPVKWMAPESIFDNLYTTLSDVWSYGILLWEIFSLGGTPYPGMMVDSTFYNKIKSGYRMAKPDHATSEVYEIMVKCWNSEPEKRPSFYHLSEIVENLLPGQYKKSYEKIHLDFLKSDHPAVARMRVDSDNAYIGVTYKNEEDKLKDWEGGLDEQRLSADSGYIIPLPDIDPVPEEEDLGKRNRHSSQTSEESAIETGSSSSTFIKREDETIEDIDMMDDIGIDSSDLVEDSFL

Regarding `NC(=O)[C@@H]1CCCN1C(=O)c1ccc(-n2cc(-c3cc4cc(F)ccc4[nH]c3=O)nn2)cc1` [A242, (S)-1-{4-[4-(6-fluoro-2-oxo-1,2-dihydro-quinolin-3-yl)-[1,2,3]triazol-1-yl]-benzoyl}-pyrrolidine-2-carboxylic acid amide], the IC50 at c-Kit(V654A) amounted to 11 nM; on PDGFRalpha(V561D), 17 nM.
As to `NC(=O)[C@H]1CCN(C(=O)c2ccc(-n3cc(-c4cc5cc(F)ccc5[nH]c4=O)nn3)cc2)C1` [A243, (S)-1-{4-[4-(6-fluoro-2-oxo-1,2-dihydro-quinolin-3-yl)-[1,2,3]triazol-1-yl]-benzoyl}-pyrrolidine-3-carboxylic acid amide], the IC50 amounted to 30 nM on c-Kit(V654A) and 14 nM on PDGFRalpha(V561D).
Regarding `CO[C@@H]1C[C@H](CO)N(C(=O)c2ccc(-n3cc(-c4cc5cc(F)ccc5[nH]c4=O)nn3)cc2)C1` [A244, 6-fluoro-3-{1-[4-((2R,4R)-2-hydroxymethyl-4-methoxy-pyrrolidine-1-carbonyl)-phenyl]-1H-[1,2,3]triazol-4-yl}-1H-quinolin-2-one], the values for the IC50 on c-Kit(V654A) and on PDGFRalpha(V561D) were 36 nM and 13 nM, respectively.
Regarding `O=C(c1ccc(-n2cc(-c3cc4cc(F)ccc4[nH]c3=O)nn2)cc1)N1CCCCC12COC2` [A245, 6-fluoro-3-{1-[4-(2-oxa-5-aza-spiro[3.5]nonane-5-carbonyl)-phenyl]-1H-[1,2,3]triazol-4-yl}-1H-quinolin-2-one], the IC50 came out at 65 nM at c-Kit(V654A) and 470 nM on PDGFRalpha(V561D).
Take `O=C(c1ccc(-n2cc(-c3cc4cc(Cl)ccc4[nH]c3=O)nn2)cc1)N1CCC[C@H]1CO` [A246, 6-chloro-3-{1-[4-((S)-2-hydroxymethyl-pyrrolidine-1-carbonyl)-phenyl]-1H-[1,2,3]triazol-4-yl}-1H-quinolin-2-one]: the values for the IC50 on c-Kit(V654A) and on PDGFRalpha(V561D) were 23 nM and 7.4 nM, respectively.
With `CO[C@@H]1C[C@H](CO)N(C(=O)c2ccc(-n3cc(-c4cc5cc(Cl)ccc5[nH]c4=O)nn3)cc2)C1` [A247, 6-chloro-3-{1-[4-((2R,4R)-2-hydroxymethyl-4-methoxy-pyrrolidine-1-carbonyl)-phenyl]-1H-[1,2,3]triazol-4-yl}-1H-quinolin-2-one], the IC50 was 23 nM at c-Kit(V654A) and 45 nM at PDGFRalpha(V561D).
Regarding `CO[C@@H]1C[C@@H](CO)N(C(=O)c2ccc(-n3cc(-c4cc5cc(Cl)ccc5[nH]c4=O)nn3)cc2)C1` [A248, 6-chloro-3-{1-[4-((2S,4R)-2-hydroxymethyl-4-methoxy-pyrrolidine-1-carbonyl)-phenyl]-1H-[1,2,3]triazol-4-yl}-1H-quinolin-2-one], the IC50 on c-Kit(V654A) is 35 nM; on PDGFRalpha(V561D) it was 45 nM.
As for `O=C(c1ccc(-n2cc(-c3cc4cc(Cl)ccc4[nH]c3=O)nn2)cc1)N1CCC(N2CCC(O)CC2)C1` (stereo not shown) [A249, 6-chloro-3-(1-{4-[3-(4-hydroxy-piperidin-1-yl)-pyrrolidine-1-carbonyl]-phenyl}-1H-[1,2,3]triazol-4-yl)-1H-quinolin-2-one], the IC50 at c-Kit(V654A) turned out to be 35 nM; at PDGFRalpha(V561D) it was 260 nM.
With `O=C(c1ccc(-n2cc(-c3cc4cc(Cl)ccc4[nH]c3=O)nn2)cc1)N1CCN(C2COC2)CC1` [A250, 6-chloro-3-{1-[4-(4-oxetan-3-yl-piperazine-1-carbonyl)-phenyl]-1H-[1,2,3]triazol-4-yl}-1H-quinolin-2-one], the IC50 came out at 40 nM at c-Kit(V654A) and 76 nM at PDGFRalpha(V561D).
Consider `COCCO[C@H]1CCN(C(=O)c2ccc(-n3cc(-c4cc5cc(F)ccc5[nH]c4=O)nn3)cc2)C1` [A251, 6-fluoro-3-(1-{4-[(S)-3-(2-methoxy-ethoxy)-pyrrolidine-1-carbonyl]-phenyl}-1H-[1,2,3]triazol-4-yl)-1H-quinolin-2-one], for which the figures for the IC50 on c-Kit(V654A) and at PDGFRalpha(V561D) were 160 nM and 400 nM, respectively.
For `COCCO[C@@H]1CCN(C(=O)c2ccc(-n3cc(-c4cc5cc(F)ccc5[nH]c4=O)nn3)cc2)C1` [A252, 6-fluoro-3-(1-{4-[(R)-3-(2-methoxy-ethoxy)-pyrrolidine-1-carbonyl]-phenyl}-1H-[1,2,3]triazol-4-yl)-1H-quinolin-2-one], the half-inhibitory concentration (IC50) is 98 nM at c-Kit(V654A) and 93 nM on PDGFRalpha(V561D).
`COC[C@@H]1CCCN1C(=O)c1ccc(-n2cc(-c3cc4cc(Cl)ccc4[nH]c3=O)nn2)cc1` [A253, 6-chloro-3-{1-[4-((S)-2-methoxymethyl-pyrrolidine-1-carbonyl)-phenyl]-1H-[1,2,3]triazol-4-yl}-1H-quinolin-2-one]: the IC50 at c-Kit(V654A) is 44 nM; on PDGFRalpha(V561D), 21 nM.
In the case of `CN(C)C1CCN(C(=O)c2ccc(-n3cc(-c4cc5cc(Cl)ccc5[nH]c4=O)nn3)cc2)C1` (stereo not shown) [A254, 6-chloro-3-{1-[4-(3-dimethylamino-pyrrolidine-1-carbonyl)-phenyl]-1H-[1,2,3]triazol-4-yl}-1H-quinolin-2-one], the IC50 at c-Kit(V654A) is 57 nM; on PDGFRalpha(V561D), 24 nM.
For `O=C(c1ccc(-n2cc(-c3cc4cc(Cl)ccc4[nH]c3=O)nn2)cc1)N1CCCCC1CO` (stereo not shown) [A255, 6-chloro-3-{1-[4-(2-hydroxymethyl-piperidine-1-carbonyl)-phenyl]-1H-[1,2,3]triazol-4-yl}-1H-quinolin-2-one], the IC50 worked out at 22 nM at c-Kit(V654A) and 2.6 nM at PDGFRalpha(V561D).
On to `O=C(c1ccc(-n2cc(-c3cc4cc(Cl)ccc4[nH]c3=O)nn2)cc1)N1CCC2(CC1)COC2` [A256, 6-chloro-3-{1-[4-(2-oxa-7-aza-spiro[3.5]nonane-7-carbonyl)-phenyl]-1H-[1,2,3]triazol-4-yl}-1H-quinolin-2-one], for which the values for the IC50 on c-Kit(V654A) and at PDGFRalpha(V561D) were 27 nM and 4.3 nM, respectively.
As to `O=C(c1ccc(-n2cc(-c3cc4cc(Cl)ccc4[nH]c3=O)nn2)cc1)N1CCC2(COC2)C1` [A257, 6-chloro-3-{1-[4-(2-oxa-6-aza-spiro[3.4]octane-6-carbonyl)-phenyl]-1H-[1,2,3]triazol-4-yl}-1H-quinolin-2-one], the IC50 at c-Kit(V654A) was determined as 27 nM; at PDGFRalpha(V561D) it was 3.7 nM.
Take `O=C(c1ccc(-n2cc(-c3cc4cc(Cl)ccc4[nH]c3=O)nn2)cc1)N1CC2(COC2)C1` [A258, 6-chloro-3-{1-[4-(2-oxa-6-aza-spiro[3.3]heptane-6-carbonyl)-phenyl]-1H-[1,2,3]triazol-4-yl}-1H-quinolin-2-one]: the IC50 came out at 47 nM at c-Kit(V654A) and 86 nM at PDGFRalpha(V561D).
With `COCCO[C@H]1CCN(C(=O)c2ccc(-n3cc(-c4cc5cc(Cl)ccc5[nH]c4=O)nn3)cc2)C1` [A259, 6-chloro-3-(1-{4-[(S)-3-(2-methoxy-ethoxy)-pyrrolidine-1-carbonyl]-phenyl}-1H-[1,2,3]triazol-4-yl)-1H-quinolin-2-one], the IC50 at c-Kit(V654A) was found to be 57 nM; on PDGFRalpha(V561D), 8.4 nM.
As to `COCCO[C@@H]1CCN(C(=O)c2ccc(-n3cc(-c4cc5cc(Cl)ccc5[nH]c4=O)nn3)cc2)C1` [A260, 6-chloro-3-(1-{4-[(R)-3-(2-methoxy-ethoxy)-pyrrolidine-1-carbonyl]-phenyl}-1H-[1,2,3]triazol-4-yl)-1H-quinolin-2-one], the results for the IC50 on c-Kit(V654A) and on PDGFRalpha(V561D) were 51 nM and 100 nM, respectively.
`COCCO[C@@H]1CCN(C(=O)c2ccc(-n3cc(-c4cc5cc(F)ccc5[nH]c4=O)cn3)cc2)C1` [A261, 6-fluoro-3-(1-{4-[(R)-3-(2-methoxy-ethoxy)-pyrrolidine-1-carbonyl]-phenyl}-1H-pyrazol-4-yl)-1H-quinolin-2-one]: the IC50 on c-Kit(V654A) came to 44 nM; at PDGFRalpha(V561D) it was 37 nM.
Regarding `NC(=O)[C@H]1CCCN1C(=O)c1ccc(-n2cc(-c3cc4cc(F)ccc4[nH]c3=O)nn2)cc1` [A262, (R)-1-{4-[4-(6-fluoro-2-oxo-1,2-dihydro-quinolin-3-yl)-[1,2,3]triazol-1-yl]-benzoyl}-pyrrolidine-2-carboxylic acid amide], the IC50 at c-Kit(V654A) was 94 nM; on PDGFRalpha(V561D) it was 110 nM.
On to `CO[C@@H]1CN(C(=O)c2ccc(-n3cc(-c4cc5cc(F)ccc5[nH]c4=O)nn3)cc2)C[C@H]1OC` [A263, 3-{1-[4-((3R,4R)-3,4-dimethoxy-pyrrolidine-1-carbonyl)-phenyl]-1H-[1,2,3]triazol-4-yl}-6-fluoro-1H-quinolin-2-one], for which the IC50 came out at 94 nM on c-Kit(V654A) and 0.91 nM on PDGFRalpha(V561D).
Take `CO[C@H]1CN(C(=O)c2ccc(-n3cc(-c4cc5cc(F)ccc5[nH]c4=O)nn3)cc2)C[C@@H]1OC` [A264, 3-{1-[4-((3S,4S)-3,4-dimethoxy-pyrrolidine-1-carbonyl)-phenyl]-1H-[1,2,3]triazol-4-yl}-6-fluoro-1H-quinolin-2-one]: the IC50 on c-Kit(V654A) worked out at 75 nM; at PDGFRalpha(V561D), 1.2 nM.
In the case of `O=C(c1ccc(-n2cc(-c3cc4cc(F)ccc4[nH]c3=O)nn2)cc1)N1CC[C@H](F)C1` [A265, 6-fluoro-3-{1-[4-((S)-3-fluoro-pyrrolidine-1-carbonyl)-phenyl]-1H-[1,2,3]triazol-4-yl}-1H-quinolin-2-one], the IC50 at c-Kit(V654A) is 49 nM; on PDGFRalpha(V561D) it was 1.6 nM.
As to `O=C(c1ccc(-n2cc(-c3cc4cc(Cl)ccc4[nH]c3=O)nn2)cc1)N1CC[C@H](F)C1` [A266, 6-chloro-3-{1-[4-((S)-3-fluoro-pyrrolidine-1-carbonyl)-phenyl]-1H-[1,2,3]triazol-4-yl}-1H-quinolin-2-one], the IC50 on c-Kit(V654A) was determined as 40 nM; on PDGFRalpha(V561D), 1.1 nM.
As for `O=C(c1ccc(-n2cc(-c3cc4cc(F)ccc4[nH]c3=O)nn2)cc1)N1CCC(F)(F)C1` [A267, 3-{1-[4-(3,3-difluoro-pyrrolidine-1-carbonyl)-phenyl]-1H-[1,2,3]triazol-4-yl}-6-fluoro-1H-quinolin-2-one], the IC50 at c-Kit(V654A) was determined as 17 nM; on PDGFRalpha(V561D) it was 1.4 nM.

One may read the IC50 as the point on the concentration scale where inhibition reaches its midpoint.
